This passage reports TGI results from PubChem BioAssay (NCI).

SMILES strings stand for the structures.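 1) Cells in 96-well plates. 2) Compound, 48 h, 5 concentrations. 3) Linear interpolation between surrounding doses. 4) Unreached endpoint = highest concentration. TGI is the concentration that stops growth completely.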

Some test systems named below: XF 498 CNS; HOP-18 NSCLC; DMS 114 small cell lung; DMS 273 small cell lung.
Test in all cases: DTP human tumour cell line panel, 48 h

As usually defined, the TGI is the concentration giving total growth inhibition. In the assay on XF 498 CNS, `COC1CCC(O)C(CO)O1` (centres undefined) registered a TGI of more than 100 µM.
For the compound `CCOC(=O)c1ccc(N2C(=O)/C(=C/c3ccc(N(CCC#N)CCC#N)cc3)N=C2c2cc([N+](=O)[O-])ccc2Cl)cc1`, the TGI in the assay with HOP-18 NSCLC, in the assay with DMS 114 small cell lung and in the assay with DMS 273 small cell lung was more than 100 µM in each case.
